Literature values, collected in publication PMC7870075, “Physicochemical properties and formulation development of a novel compound inhibiting Staphylococcus aureus biofilm formation” (PLoS ONE, 2021).

Design: method as in PMID 23433668
Details: cited from earlier work

C=CCn1c(NCC)nc2c(c1=O)C(C)(C)Cc1cc(OC)ccc1-2 [CCG-203592]
half-life in mouse liver microsomes (t1/2): 0.8 min
